Measurements: patent publication US7618958B2, “Stereospecific anxiolytic and anticonvulsant agents with reduced muscle-relaxant, sedative-hypnotic and ataxic effects” (WISYS Technology Foundation, Inc., priority 2004, dated 2009)

Columns and labels:
Male Sprague-Dawley rats [1] = assay: Open-field locomotor activity in rats; conditions: ratio of lowest effective anxiolytic dose (situational anxiety) and lowest effective dose producing side effects in locomotor activity, PO
Experimental: Open-Field Locomotor Activity in Rats
Male Sprague-Dawley rats, weighing 250-290 grams at the beginning of the experiment were purchased from Charles River Laboratories (Wilmington, Mass.). The animals were housed in groups of four in a colony room maintained at constant temperature (21±2° C.) and humidity (50±10%). The room was illuminated 12 hours per day (lights on at 0600 h). The rats had ad libitum access to food and water. The testing apparatus consisted of Plexiglas chambers (42×42×30 cm) equipped with Digiscan activity monitors (Omnitech Electronics, Columbus, Ohio) that detect interruptions of 16 photobeams spaced 2.5 cm apart and 2.5 cm above the floor. Horizontal activity was monitored for 60 minutes.
(§1) Drug Administration: All drugs were administered PO 20-60 minutes before behavioral testing.
(§2) Data Analysis: Results were expressed as the mean±1 SEM. All data were subjected to analysis of variance (ANOVA) followed by individual mean comparisons using Fisher's Least Significant Difference Test (Kirk, 1968) where appropriate. The significance level was set at p<0.05.
Rats were placed in an open field and the total distance covered by the rat was measured. The test duration was 60 minutes. Compounds producing sedative effects decrease the distance covered.

Male Sprague-Dawley rats [2] = assay: Rotorod performance in rats; conditions: ratio of lowest effective anxiolytic dose (situational anxiety) and lowest effective dose producing side effects in rotorod, PO
Experimental: Rotorod Performance in Rats
Male Sprague-Dawley rats, weighing 180-200 grams at the beginning of the experiment were purchased from Charles River Laboratories (Wilmington, Mass.). The animals were housed in groups of four in a colony room maintained at constant temperature (21±2° C.) and humidity (50±10%). The room was illuminated 12 hours per day (lights on at 0600 h). The rats had ad libitum access to food and water. The degree of muscle coordination or balance (i.e., ataxia) was determined using a standard accelerating rotorod treadmill (Ugo Basile, Comerio-Varese, Italy or Columbus Instruments, Columbus, Ohio) that was 6 cm in diameter, 24 cm above the base, and run from an initial speed of 2 rpm to a maximum speed of 20 rpm. The time each animal remained on the rotating rod was automatically recorded, up to a maximum of 5 minutes.
as §1, §2
The time on the rod for each rat was recorded. Compounds producing ataxia (motor incoordination) decrease the time spent on the rod compared with vehicle-treated animals.

Male CF1 mice = assay: Protection from pentylenetetrazole-induced seizures; type: in vivo, mouse; conditions: PO 60 min before pentylenetetrazole 125 mg/kg s.c.
Experimental: Protection from Pentylenetetrazole-Induced Seizures
Male CF1 mice weighing 20-22 g at the time of the experiment were purchased from Charles River Laboratories (Wilmington, Mass.). Pentylenetetrazole (Sigma Chemical Co.) was administered at 125 mg/kg s.c. The number of animals surviving was recorded at 30 minutes and 60 minutes after administration of pentylenetetrazole.
Drug Administration: All drugs were administered PO 60 minutes before administration of pentyenetetrazole.
Data Analysis: The data are presented as the percent of animals protected from death. The data were analyzed by Chi Square statistics. The significance level was set at p<0.05.
Mice treated with certain compounds of the present invention were subjected to pentylenetetrazole (PTZ) at 125 mg/kg to induce seizures. The percent of animals protected from death within one hour of PTZ was measured.

Male Sprague-Dawley rats [3] = assay: Discriminative stimulus effects of chlordiazepoxide in rats (drug discrimination); conditions: ratio of lowest effective anxiolytic dose (situational anxiety) and lowest effective dose producing chlordiazepoxide-like effects in drug discrimination
male Wistar rats = assay: Elevated plus-maze in rats; type: in vivo, rat; conditions: rats, mean, N 6; for Open Entries: SOLVENT mean 2.57; for Closed Entries: SOLVENT mean 7.14; for Total Distance Travelled (m): SOLVENT mean 9.30; for Total Entries: SOLVENT mean 9.71; for % Open Time: SOLVENT mean 20.43; for % Open Entries: SOLVENT mean 25.57; for Time in open arms: SOLVENT mean 50.29; for Time in closed arms: SOLVENT mean 196.29
Experimental: Except where noted, the methods used were those of Miroslav M., et al., (2004) Pharmacology, Biochemistry and Behavior 79: 279-290. Experiments were carried out on male Wistar rats (Military Farm, Belgrade, Serbia and Montenegro), weighing 200-240 g. All procedures in the study conformed to EEC Directive 86/609 and were approved by the Ethical Committee on Animal Experimentation of the Medical Faculty in Belgrade. The rats were housed in transparent plastic cages, six animals per cage, and had free access to pelleted food and tap water before and after drug administration. The temperature of the animal room was 22±1° C., the relative humidity 40-70%, the illumination 120 1× and the 12/12-h light/dark period (light on at 06:00 h). All handling and testing took place during the light portion of the cycle. Throughout the study the animals were used only once.
Midazolam and flumazenil were generously donated from F. Hoffman-La Roche (Basel, Switzerland). Zolpidem was purchased from Toronto Research Chemicals (North York, Canada) and DMCM from Research Biochemicals (Natick, Mass., USA). All drugs were dissolved/suspended with the aid of sonication in a solvent containing 85% distilled water, 14% propylene glycol and 1% Tween 80™, and were administered intraperitoneally, in a volume of 1 ml/kg, 20 min before testing. Doses are expressed as the base forms of the drugs. In the cases of combined treatment, agonists were administered at separate sites, immediately after the antagonist. Each animal received a total volume of 2 ml/kg of compounds tested or appropriate vehicles, at two different injection sites.
The test apparatus was constructed of sheet metal, with a black rubber floor. It consisted of a maze elevated to a height of 50 cm with two open (50×10 cm) and two enclosed arms (50×10×40 cm), connected by junction area (central platform) measured 10×10 cm. Although the floor was rubberized, a ledge of sheet metal (0.3 cm high) surrounding the open arms was added, to avoid rats falling off. The illumination in the experimental room consisted of one red neon tube fixed on the ceiling, giving light intensity of 10 1× on the surface of the arms. The experiments were carried out during the diurnal phase (between 08:00 and 12:00 h). At the beginning of the experiment, rats were placed in the centre of the maze, facing one of the enclosed arms and observed for 5 min. The observer sat in the same room 1 m from the maze. After each trial, the maze was cleaned with dry and wet towels. Throughout the study, the number of rats per treatment group was 8-14. Each experiment was run over 4 consecutive days, with three control rats per day; as there was no difference in plus-maze activity among control subgroups, they were pooled in a single control group (n=12).
All numerical data presented in the figures were given as the mean±S.E.M. Each dose-response curve (agonist or antagonist alone or agonist+antagonist) was assessed by a one-way ANOVA. If the ANOVA was significant, each treatment condition was compared with the appropriate solvent control by a Dunnett's test (a=0.05). In case of significant effect in the number of enclosed arm entries, an analysis of covariance (ANCOVA) was performed in the anxiety-related parameters using the number of enclosed arm entries as covariate. Interactions between the agonists and antagonists were analyzed separately with a two-way ANOVA [factors: agonist dose versus cotreatment (an antagonist or saline)]; pairwise comparisons for the assessment of the antagonist influence on the agonist effects were conducted by Tukey's test, one of the methods recommended even in the absence of an overall significant F-test (Wilcox R R. New designs in analysis of variance. Annu Rev Psychol 1987; 38: 29-60). Statistical analyses were performed with commercial statistical software for PC, Stat for Windows R. 5.0.

[4] = DZP 1.25 mg/kg ip, t test p ≦ 0.05

CCOC(=O)c1ncn2c1CN=C(c1ccccc1)c1cc(Cl)ccc1-2
melting point: 174 to 175 °C

CNC1=Nc2ccc(Br)cc2C(c2ccccc2)=NC1
melting point: 234 to 235 °C

CNC1=Nc2ccc(C#C[Si](C)(C)C)cc2C(c2ccccc2)=NC1
melting point: 210 to 211 °C

CN1C(=O)CN=C(c2ccccn2)c2cc(C#C[Si](C)(C)C)ccc21
melting point: 194 to 195 °C

C#Cc1ccc2c(c1)C(c1ccccn1)=NCC(=O)N2C
melting point: 190 to 191 °C

CCOC(=O)c1ncn2c1CN=C(c1ccccn1)c1cc(C#C[Si](C)(C)C)ccc1-2
melting point: 205 to 206 °C

CCOC(=O)c1ncn2c1CN=C(c1cccs1)c1cc(C#C[Si](C)(C)C)ccc1-2
melting point: 124 to 127 °C

CCOC(=O)c1ncn2c1C(C)N=C(c1ccccc1)c1cc(Br)ccc1-2 (stereo not shown)
melting point: 164 to 165 °C

CCOC(=O)c1ncn2c1C(C)N=C(c1ccccc1)c1cc(C#C[Si](C)(C)C)ccc1-2 (stereo not shown)
melting point: 160 to 162 °C

CCOC(=O)c1ncn2c1C(C)N=C(c1ccccc1F)c1cc(C#C[Si](C)(C)C)ccc1-2 (stereo not shown)
melting point: 186 to 187 °C

CCOC(=O)c1ncn2c1C(C)N=C(c1ccccn1)c1cc(C#C[Si](C)(C)C)ccc1-2 (stereo not shown)
melting point: 197 to 198 °C

CC(C)(C)OC(=O)c1ncn2c1CN=C(c1ccccc1)c1cc(Br)ccc1-2
melting point: 222 to 223 °C

Cc1nnc2n1-c1ccc(C#CC(C)(C)C)cc1C(c1ccccc1Cl)=NC2
melting point: > 268 °C (dec.)

Cc1nnc2n1-c1ccc(C#CC(C)(C)C)cc1C(c1ccccc1)=NC2
melting point: 184 to 186 °C

O=C(OCC(F)(F)F)c1ncn2c1CN=C(c1ccccc1)c1cc(Br)ccc1-2
melting point: 202 to 204 °C

O=C(OCC(Cl)(Cl)Cl)c1ncn2c1CN=C(c1ccccc1)c1cc(Br)ccc1-2
melting point: 113 to 116 °C

C[Si](C)(C)C#Cc1ccc2c(c1)C(c1ccccc1)=NCc1c(C(=O)OCC(F)(F)F)ncn1-2
melting point: 107 to 110 °C

CCOC(=O)c1ncn2c1CN=C(c1ccccc1)c1cc(Br)ccc1-2 [DM-i-070, Ethyl 8-bromo-6-phenyl-4H-benzo[f]imidazo[1,5-a][1,4]diazepine-3-carboxylate]
Antianxiety/sedation (Male Sprague-Dawley rats [1]): >100
Antianxiety/ataxia (Male Sprague-Dawley rats [2]): >100
PTZ Seizures, effective dose (Male CF1 mice): <100 mg/kg
Antianxiety/abuse liability (Male Sprague-Dawley rats [3]): 10

CN1C(=O)CN=C(c2ccccc2)c2cc(Cl)ccc21 [Diazepam, reference compound]
PTZ Seizures, effective dose (Male CF1 mice): <10 mg/kg
Open Entries (male Wistar rats; [4]): 4.83
Closed Entries (male Wistar rats; DZP 1.25 mg/kg ip, t test p = 0.292): 5.50
Total Distance Travelled (m) (male Wistar rats; DZP 1.25 mg/kg ip, t test p = 0.670): 8.59 m
Total Entries (male Wistar rats; DZP 1.25 mg/kg ip, t test p = 0.745): 10.33
% Open Time (male Wistar rats; [4]): 46.33%
% Open Entries (male Wistar rats; [4]): 47.00%
Time in open arms (male Wistar rats; DZP 1.25 mg/kg ip, t test p = 0.052): 104.17
Time in closed arms (male Wistar rats; DZP 1.25 mg/kg ip, t test p = 0.064): 129.50
Antianxiety/abuse liability (Male Sprague-Dawley rats [3]): 5

C#Cc1ccc2c(c1)C(c1ccccc1F)=NC(C)c1c(C(=O)OCC)ncn1-2 (stereo not shown) [SH-053-2′F-S—CH3, 8-Ethynyl-6-(2-fluorophenyl)-4-methyl-4H-2,5,10b-triaza-benzo[e]azulene-3-carboxylic acid ethyl ester]
Open Entries (male Wistar rats; SH-053-2′F-S—CH3 10 mg/kg ip, t test p = 0.503): 3.33
Closed Entries (male Wistar rats; SH-053-2′F-S—CH3 10 mg/kg ip, t test p ≦ 0.05): 4.67
Total Distance Travelled (m) (male Wistar rats; SH-053-2′F-S—CH3 10 mg/kg ip, t test p = 0.080): 6.91 m
Total Entries (male Wistar rats; SH-053-2′F-S—CH3 10 mg/kg ip, t test p = 0.239): 8.00
% Open Time (male Wistar rats; SH-053-2′F-S—CH3 10 mg/kg ip, t test p = 0.536): 25.00%
% Open Entries (male Wistar rats; SH-053-2′F-S—CH3 10 mg/kg ip, t test p = 0.147): 37.17%
Time in open arms (male Wistar rats; SH-053-2′F-S—CH3 10 mg/kg ip, printed t test line doubtful): 60.50
Time in closed arms (male Wistar rats; SH-053-2′F-S—CH3 10 mg/kg ip, t test p = 0.586): 183.33

Cc1nnc2n1-c1ccc(Cl)cc1C(c1ccccc1Cl)=NC2 [Triazolam, reference compound]
Antianxiety/sedation (Male Sprague-Dawley rats [1]): 300
Antianxiety/ataxia (Male Sprague-Dawley rats [2]): 100
PTZ Seizures, effective dose (Male CF1 mice): <1.0 mg/kg
Antianxiety/abuse liability (Male Sprague-Dawley rats [3]): 30
